Data from BigSolDB 2.1.

COC(=O)Nc1ccc(C)c(NC(=O)OC)c1
Conditions	solubility (mole fraction)
in di(2-ethylhexyl) phthalate, 334.25 K	0.167
in di(2-ethylhexyl) phthalate, 346.95 K	0.172
in di(2-ethylhexyl) phthalate, 363.65 K	0.178
in di(2-ethylhexyl) phthalate, 378.65 K	0.186
in di(2-ethylhexyl) phthalate, 389.55 K	0.195
in di(2-ethylhexyl) phthalate, 398.15 K	0.2
in dimethyl carbonate, 307.75 K	0.0087
in dimethyl carbonate, 316.15 K	0.013
in dimethyl carbonate, 324.35 K	0.0173
in dimethyl carbonate, 330.65 K	0.0216
in dimethyl carbonate, 335.85 K	0.0258
in dimethyl carbonate, 339.35 K	0.0299
in dimethyl carbonate, 343.65 K	0.0341
in dimethyl carbonate, 353.15 K	0.0423
in dimethyl carbonate, 360.75 K	0.0503
in dimethyl carbonate, 365.15 K	0.0535

COC(=O)Nc1ccc(C)c(N)c1
Conditions	solubility (mole fraction)
in di(2-ethylhexyl) phthalate, 326.55 K	0.032
in di(2-ethylhexyl) phthalate, 333.75 K	0.0422
in di(2-ethylhexyl) phthalate, 341.65 K	0.0522
in di(2-ethylhexyl) phthalate, 349.95 K	0.062
in di(2-ethylhexyl) phthalate, 363.55 K	0.081
in di(2-ethylhexyl) phthalate, 391.85 K	0.0992
in dimethyl carbonate, 306.35 K	0.0339
in dimethyl carbonate, 314.25 K	0.0446
in dimethyl carbonate, 316.75 K	0.0499
in dimethyl carbonate, 320.65 K	0.0552
in dimethyl carbonate, 323.45 K	0.0604
in dimethyl carbonate, 328.25 K	0.0655
in dimethyl carbonate, 334.45 K	0.0706
in dimethyl carbonate, 341.85 K	0.0756

Cc1ccc(N)cc1N
Conditions	solubility (mole fraction)
in di(2-ethylhexyl) phthalate, 312.45 K	0.061
in di(2-ethylhexyl) phthalate, 324.25 K	0.075
in di(2-ethylhexyl) phthalate, 332.52 K	0.0871
in di(2-ethylhexyl) phthalate, 340.05 K	0.0972
in di(2-ethylhexyl) phthalate, 349.75 K	0.108
in di(2-ethylhexyl) phthalate, 361.55 K	0.127
in dimethyl carbonate, 305.75 K	0.107
in dimethyl carbonate, 310.05 K	0.113
in dimethyl carbonate, 312.85 K	0.116
in dimethyl carbonate, 316.55 K	0.118
in dimethyl carbonate, 317.45 K	0.121
in dimethyl carbonate, 321.35 K	0.124
in dimethyl carbonate, 327.35 K	0.126
in dimethyl carbonate, 333.45 K	0.129
